Read-outs that look alike come from different tables or passages of the source. No end group written: not given here.

The target of one experiment is T1, HLA-A*02:06 molecule (Homo sapiens, UniProt P04439, D140Y/D185E/D98H/E176V/E277Q/F33Y/G131W/G231S/I119V/I121R/I166T/I218V/L300P/L318F/N151K/N90K/P208A/P217A/Q86G/Q94H/R138H/R169H/T345S).
T1 construct: expressed in transfected cells; host or cells: RA2.6 cells (mouse TAP-deficient RMAS with HLA-A*02:06 cDNA)
Description: Binding of peptide to HLA-A*02:06 molecule using RA2.6 cells. The procedure: Measurement of binding ability of a peptide to an HLA-A*02:06 molecule, which is a product of an HLA-A*02:06 gene, was performed using RA2.6 cells (a cell line newly created at Kochi University) obtained by introducing cDNA of the HLA-A*02:06 gene into RMAS, which is a mouse transporter associated with antigen processing (TAP)-deficient cell line.
A fluorescently labeled monoclonal antibody BB7.2 that specifically recognizes a peptide binding type HLA-A*02:06 molecule was added thereto, and the mixture was incubated on ice for 20 minutes to stain the cells.

Another experiment addresses HLA-A*24:02 molecule (Homo sapiens, UniProt P04439, D101N/D140Y/D185E/E176V/E190D/F33S/G103R/G107R/I119L/I121M/I306V/K335N/L105A/L180Q/L300P/N151K/N90K/Q86E/Q94H/R106L/R138H/R89G/T104I/T345S/V100E/W191G/Y123F). Description: Binding of peptide to HLA-A*24:02 molecule using C1R-A24 cells. The method, then: Measurement of binding ability of a peptide to an HLA-A*24:02 molecule, which is a product of an HLA-A*24:02 gene, was performed using C1R-A24 cells expressing an HLA-A*24:02 molecule (Cells created by Professor Masafumi Takiguchi, Kumamoto University, was provided by Assistant Professor Masaki Yasukawa, Ehime University, with permission).
First, the C1R-A24 cells were exposed to acidic conditions at pH 3.3 for 30 seconds to dissociate and remove an endogenous peptide originally binding to an HLA-A*24:02 molecule and light chain β2m commonly associated with an HLA class I molecule. After neutralization, purified β2m was added to the C1R-A24 cells, and the mixture was added to a peptide dilution series and incubated on ice for four hours.
Thereafter, the number of MHC-peps for each C1R-A24 cell (proportional to a fluorescence intensity of the fluorescent antibody) was quantitatively measured using a fluorescence cell analyzer FACScan (Becton-Dickinson).

The next experiment deals with T2, HLA-A*02:01 molecule (Homo sapiens, UniProt P04439, D140Y/D185E/D98H/E176V/E277Q/G131W/G231S/I119V/I121R/I166T/I218V/L300P/L318F/N151K/N90K/P208A/P217A/Q86G/Q94H/R138H/R169H/T345S).
T2 construct: using a cell line T2 (purchased from ATCC) expressing an HLA-A*02:01 molecule; host or cells: T2 cell line
Description: Binding of peptide to HLA-A*02:01 molecule using cell line T2. The method, then: Measurement of binding ability of a peptide to an HLA-A*02:01 molecule, which is a product of an HLA-A*02:01 gene, was performed using a cell line T2 (purchased from ATCC) expressing an HLA-A*02:01 molecule.
T2 cells and purified β2m were added to a serial dilution series of a peptide whose binding ability was to be measured, and then the mixture was incubated at 37° C. for four hours. HLA-A*02:01 molecules whose expression level increased in a peptide concentration-dependent manner by this time point were stained using an association-type specific fluorescently labeled monoclonal antibody BB7.2.
Thereafter, the amount of fluorescence per cell was measured with a flow cytometer, and a dissociation constant Kd value was calculated by the method disclosed in the article (Udaka et al., Immunogenetics, 51, 816-828, 2000) by the present inventor.

Where [1] appears, read: Table 2, dissociation constant Kd value (−log Kd value), >−3.0 = no significant binding ability, read-out: Measured value of allele A*02:06 (converted).
Where [2] appears, read: Table 2, dissociation constant Kd value (−log Kd value), >−3.0 = no significant binding ability, read-out: Measured value of allele A*24:02 (converted).
Where [3] appears, read: Table 2, dissociation constant Kd value (−log Kd value), >−3.0 = no significant binding ability, read-out: Measured value of allele A*02:01 (converted).
[4] abbreviates: Table 4, Kd value (−log Kd value), smaller than −3 = binding property, read-out: Measured value of allele A*24:02 (converted).
Setting [5] is: Table 4, Kd value (−log Kd value), smaller than −3 = binding property, read-out: Measured value of allele A*02:01 (converted).

On to LLNPNRQTI [compound 23], for which the Kd on HLA-A*02:06 molecule (setting [1]) is 296 µM; at HLA-A*24:02 molecule (setting [2]), 0.602 µM; on HLA-A*02:01 molecule (setting [3]) it was 5.74 µM.

Regarding LMEEHGATL [compound 13], the figures for the Kd on HLA-A*02:06 molecule (setting [1]), on HLA-A*24:02 molecule (setting [2]) and on HLA-A*02:01 molecule (setting [3]) were 2.1 µM, 5.98 µM and 12.1 µM, respectively.

For LMITRKSFI [compound 17], the Kd at HLA-A*02:06 molecule (setting [1]) is 29.3 µM; on HLA-A*24:02 molecule (setting [2]), 0.972 µM; on HLA-A*02:01 molecule (setting [3]) it was 6.26 µM.

On to LPFSPSQFL [compound 60], for which the Kd at HLA-A*02:06 molecule (setting [1]) is more than 1000 µM; at HLA-A*24:02 molecule (setting [2]), 448 µM; on HLA-A*02:01 molecule (setting [3]) it was more than 1000 µM.

As to LPPARHSTI [compound 76], the Kd at HLA-A*02:06 molecule (setting [1]), at HLA-A*24:02 molecule (setting [2]), on HLA-A*24:02 molecule (setting [4]) and on HLA-A*02:01 molecule (setting [3]) was more than 1000 µM throughout.

Turning to LTEEHGATL [compound 42], the Kd on HLA-A*02:06 molecule (setting [1]) is 11.9 µM; at HLA-A*24:02 molecule (setting [2]), more than 1000 µM; on HLA-A*24:02 molecule (setting [4]) it was more than 1000 µM; at HLA-A*02:01 molecule (setting [3]) it was 82.1 µM.

Turning to LTITRKSFI [compound 45], the Kd at HLA-A*02:06 molecule (setting [1]) was 162 µM; at HLA-A*24:02 molecule (setting [2]), 15 µM; at HLA-A*02:01 molecule (setting [3]), more than 1000 µM.

Take LVEEHGATL [compound 43]: the Kd is 13.7 µM on HLA-A*02:06 molecule (setting [1]), more than 1000 µM at HLA-A*24:02 molecule (setting [2]), more than 1000 µM on HLA-A*24:02 molecule (setting [4]) and 66.1 µM on HLA-A*02:01 molecule (setting [3]).

LVITRKSFI [compound 30]: the values for the Kd at HLA-A*02:06 molecule (setting [1]), at HLA-A*24:02 molecule (setting [2]) and at HLA-A*02:01 molecule (setting [3]) were 243 µM, 3.47 µM and 97.6 µM, respectively.

Consider MLPQTPSHL [compound 24], for which the Kd was 109 µM on HLA-A*02:06 molecule (setting [1]), 0.0716 µM on HLA-A*24:02 molecule (setting [2]) and 2.64 µM at HLA-A*02:01 molecule (setting [3]).

As for SLLITRKSF [compound 62], the Kd at HLA-A*02:06 molecule (setting [1]) was more than 1000 µM; at HLA-A*24:02 molecule (setting [2]) it was 1.44 µM; at HLA-A*02:01 molecule (setting [3]) it was more than 1000 µM.

Regarding SLPFSPSQF [compound 56], the Kd at HLA-A*02:06 molecule (setting [1]) was more than 1000 µM; on HLA-A*24:02 molecule (setting [2]) it was 0.1 µM; at HLA-A*02:01 molecule (setting [3]) it was more than 1000 µM.

For SLPNEKQTS [compound 69], the Kd at HLA-A*02:06 molecule (setting [1]), on HLA-A*24:02 molecule (setting [2]), on HLA-A*24:02 molecule (setting [4]) and at HLA-A*02:01 molecule (setting [3]) was more than 1000 µM each time.

With SLVLTWAAL [compound 14], the figures for the Kd on HLA-A*02:06 molecule (setting [1]), on HLA-A*24:02 molecule (setting [2]) and at HLA-A*02:01 molecule (setting [3]) were 0.572 µM, 4.89 µM and 2.36 µM, respectively.

In the case of SPDEFSNDF [compound 73], the Kd at HLA-A*02:06 molecule (setting [1]), on HLA-A*24:02 molecule (setting [2]), on HLA-A*24:02 molecule (setting [4]) and on HLA-A*02:01 molecule (setting [3]) was more than 1000 µM throughout.

As for SSFEFFEEA [compound 37], the Kd at HLA-A*02:06 molecule (setting [1]) was 0.0377 µM; at HLA-A*24:02 molecule (setting [2]), more than 1000 µM; on HLA-A*24:02 molecule (setting [4]), more than 1000 µM; on HLA-A*02:01 molecule (setting [3]), 0.32 µM.

For the sequence SSLDPPKVL [compound 55], the Kd at HLA-A*02:06 molecule (setting [1]) was more than 1000 µM; at HLA-A*24:02 molecule (setting [2]), 4.47 µM; on HLA-A*02:01 molecule (setting [3]) it was more than 1000 µM.

Consider STGESAQTS [compound 71], for which the Kd at HLA-A*02:06 molecule (setting [1]), on HLA-A*24:02 molecule (setting [2]), at HLA-A*24:02 molecule (setting [4]) and on HLA-A*02:01 molecule (setting [3]) was more than 1000 µM in each case.

With THLDAGTVE [compound 75], the Kd at HLA-A*02:06 molecule (setting [1]), at HLA-A*24:02 molecule (setting [2]), at HLA-A*24:02 molecule (setting [4]) and at HLA-A*02:01 molecule (setting [3]) was more than 1000 µM each time.

Regarding TLTAWQHGL [compound 33], the Kd is 1.42 µM on HLA-A*02:06 molecule, 20.1 µM at HLA-A*24:02 molecule and 1.11 µM at HLA-A*02:01 molecule.

Regarding TVLVPPRNL [compound 48], the Kd is more than 1000 µM on HLA-A*02:06 molecule (setting [1]); 5.36 µM on HLA-A*24:02 molecule (setting [2]); 5.36 µM on HLA-A*24:02 molecule (setting [4]); more than 1000 µM at HLA-A*02:01 molecule (setting [3]); more than 1000 µM at HLA-A*02:01 molecule (setting [5]). In addition, on HLA-A*02:06 molecule (Table 4, Kd value (−log Kd value), smaller than −3 = binding property), the “Measured value of allele A*02:06” value was more than −3.

With VFGRVMQID [compound 66], the Kd at HLA-A*02:06 molecule (setting [1]) was more than 1000 µM; at HLA-A*24:02 molecule (setting [2]), 3.87 µM; on HLA-A*02:01 molecule (setting [3]), more than 1000 µM.

VLLQQFQTA [compound 15]: the Kd was 3.4 µM on HLA-A*02:06 molecule (setting [1]), 2.81 µM on HLA-A*24:02 molecule (setting [2]) and 19.3 µM on HLA-A*02:01 molecule (setting [3]).

For VLPPARHST [compound 54], the Kd is more than 1000 µM on HLA-A*02:06 molecule (setting [1]), more than 1000 µM at HLA-A*24:02 molecule (setting [2]), more than 1000 µM on HLA-A*24:02 molecule (setting [4]) and 7.73 µM on HLA-A*02:01 molecule (setting [3]).

VMQIDGVQP [compound 67]: the Kd was 389 µM at HLA-A*02:06 molecule (setting [1]), more than 1000 µM at HLA-A*24:02 molecule (setting [2]), more than 1000 µM at HLA-A*24:02 molecule (setting [4]) and more than 1000 µM at HLA-A*02:01 molecule (setting [3]).

For the sequence VMSHHGEKL [compound 19], the Kd is 50.4 µM at HLA-A*02:06 molecule (setting [1]), 0.793 µM on HLA-A*24:02 molecule (setting [2]) and 8.32 µM on HLA-A*02:01 molecule (setting [3]).

YFFTVIFSF [compound 44]: the Kd on HLA-A*02:06 molecule (setting [1]) is more than 39.8 µM; at HLA-A*24:02 molecule (setting [2]), 0.168 µM; at HLA-A*02:01 molecule (setting [3]), more than 1000 µM.

For the sequence YLYDPPTTI [compound 4], the values for the Kd on HLA-A*02:06 molecule (setting [1]), on HLA-A*24:02 molecule (setting [2]) and on HLA-A*02:01 molecule (setting [3]) were 1.36 µM, 0.692 µM and 0.583 µM, respectively.

Turning to YPGWHSTTI [compound 52], the Kd at HLA-A*02:06 molecule (setting [1]) was more than 1000 µM; at HLA-A*24:02 molecule (setting [2]) it was 2.18 µM; at HLA-A*02:01 molecule it was more than 1000 µM.

For YQLSPPITW [compound 32], the Kd is 1.78 µM on HLA-A*02:06 molecule; 1.72 µM at HLA-A*24:02 molecule (Measured value of allele A*24:02, Table 2, dissociation constant Kd value (−log Kd value), >−3.0 = no significant binding ability); 0.172 µM at HLA-A*24:02 molecule (Measured value of allele A*24:02, Table 4, Kd value (−log Kd value), smaller than −3 = binding property); 351 µM at HLA-A*02:01 molecule.

As to YTYDPPTTI [compound 3], the Kd at HLA-A*02:06 molecule (Table 4, Kd value (−log Kd value), smaller than −3 = binding property, read-out: Measured value of allele A*02:06 (converted)) is 0.669 µM; at HLA-A*24:02 molecule (setting [2]), 3.11 µM; on HLA-A*02:01 molecule (setting [3]), 0.336 µM; on HLA-A*02:01 molecule (setting [5]), 3.36 µM.

As for YVYDPPTTI [compound 2], the values for the Kd at HLA-A*02:06 molecule (setting [1]), on HLA-A*24:02 molecule (setting [2]) and on HLA-A*02:01 molecule (setting [3]) were 2.8 µM, 0.584 µM and 0.696 µM, respectively.

Source of the values: patent US20250236642A1, “PHARMACEUTICAL COMPOSITION FOR TREATMENT OR PREVENTION OF ADULT T-CELL LEUKEMIA” (NEC Corporation, priority 2022, published 2025).
